The values below come from patent US8389563B2, “C-substituted diindolylmethane compositions and methods for the treatment of multiple cancers” (The Texas A&M University System, priority 2000, dated 2013).

For one data set, the target named is T1, Ah receptor (Rattus norvegicus, UniProt P41738).
T1 sequence (P41738 10-853): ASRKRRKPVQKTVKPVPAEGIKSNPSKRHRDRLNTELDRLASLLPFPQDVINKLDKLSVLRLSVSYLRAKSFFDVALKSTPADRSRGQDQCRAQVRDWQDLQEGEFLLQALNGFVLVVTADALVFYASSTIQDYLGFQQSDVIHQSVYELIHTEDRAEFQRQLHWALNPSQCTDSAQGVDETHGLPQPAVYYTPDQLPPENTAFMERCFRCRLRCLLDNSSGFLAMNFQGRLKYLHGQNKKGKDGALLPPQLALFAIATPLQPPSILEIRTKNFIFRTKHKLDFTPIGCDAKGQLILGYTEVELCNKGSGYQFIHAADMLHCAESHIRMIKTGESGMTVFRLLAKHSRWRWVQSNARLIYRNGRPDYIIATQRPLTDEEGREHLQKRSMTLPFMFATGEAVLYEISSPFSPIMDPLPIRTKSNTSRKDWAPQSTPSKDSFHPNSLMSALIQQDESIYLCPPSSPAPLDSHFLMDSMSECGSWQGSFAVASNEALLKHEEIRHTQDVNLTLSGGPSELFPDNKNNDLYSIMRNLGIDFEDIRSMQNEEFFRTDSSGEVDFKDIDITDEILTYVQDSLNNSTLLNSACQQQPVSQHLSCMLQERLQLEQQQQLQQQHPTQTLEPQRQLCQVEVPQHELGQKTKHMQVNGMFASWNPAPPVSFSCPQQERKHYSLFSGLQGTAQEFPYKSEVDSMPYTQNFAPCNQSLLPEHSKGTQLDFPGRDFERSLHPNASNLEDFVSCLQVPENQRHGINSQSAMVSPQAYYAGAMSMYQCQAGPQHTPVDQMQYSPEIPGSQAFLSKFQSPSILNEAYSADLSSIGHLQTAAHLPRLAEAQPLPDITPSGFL
In words: Ah receptor competitive binding.

The subject of data set [1] is TCCSUP human bladder cancer cell line. In words: Cell proliferation of TCCSUP bladder cancer cells. Type of data set: cell-based. To be noted: for Proliferation of TCCSUP human bladder cancer cells: 0.1-10 μM, cell growth over 4-10 days; for Lowest concentration at which TCCSUP cells were inhibited: lowest concentration tested. Here is the method:
(§1) Initial studies used TCCSUP and J82 human bladder cancer cell lines that were maintained in RPMI culture media supplemented with 10% fetal bovine serum. Cell proliferation studies were carried out in multi-well plates, and compounds (in DMSO, 0.1% vol./vol.) were added and cell growth was determined over a period of 4 10 days. The growth inhibitory properties of DIM and related analogs were determined using the following prototypical compounds: DIM, 5,5′-dimethylDIM (5-Me-DIM), 2,2′-dimethylDIM (2-Me-DIM), and 5,5′-dichloroDIM (5-Cl-DIM) at concentrations from 0.1 10 μM.
as §1, with “Initial studies on the possible protective role for DIM compounds in bladder cancer used TCCSUP” for “Initial studies used TCCSUP”

Data set [2] deals with J82 human bladder cancer cell line. In words: Cell proliferation of J82 bladder cancer cells. Type of data set: cell-based. The settings on record: 0.1-10 μM, cell growth over 4-10 days. As for the experimental part:
as §1
as §1, with “Initial studies on the possible protective role for DIM compounds in bladder cancer used TCCSUP” for “Initial studies used TCCSUP”

Data set [3] deals with HT-29 human colon cancer cells. In words: Cell proliferation and apoptosis of HT-29 colon cancer cells. Format: cell-based. As for the experimental part:
Studies with HT-29 human colon cancer cells also indicate that DIM and related analogs protect against colon cancer. HT-29 cells were grown in DMEM and serum and treated with 25 μM DIM and 4,4′-dichloroDIM. After 72 hr, there was a 73 and 92% decrease in cell proliferation, respectively, and these antiproliferative effects could be observed with cell concentrations as low as 10 μM.
Preliminary studies with HT-29 human colon cancer cells also indicate that DIM and related analogs protect against colon cancer. HT-29 cells were grown in DMEM and serum and treated with 25 μM DIM and 4,4′-dichloroDIM. After 72 hours, there was a 73 and 92% decrease in cell proliferation, respectively, and these antiproliferative effects could be observed with concentrations as low as 10 μM.

Data set [4] has as its system mitogen-activated protein kinase (MAPKK). In words: MAPKK-induced pSRE reporter activity in MCF-7 cells. Format: cell-based. To be noted: 1 or 5 μM, MCF-7 cells transfected with pMAPKK and pSRE. The source says: Therefore, we have been investigating the inhibitory effects of DIMs on kinase activities and our initial studies have examined inhibition of mitogen-activated protein kinase (MAPKK) which regulates expression of multiple genes involved in cell proliferation. MCF-7 cells are transfected with a constitutively active MAPKK expression plasmid (pMAPKK), and induction of activity is monitored through activation of the construct pSRE which contains a MAPKK-inducible serum response element (SRE) from the cfos protooncogene (Duan et al., “Estrogen receptor-mediated activation of the serum response element in MCF-7 cells through MAPK-dependent phosphorylation of Elk-1” J. Biol. Chem. 276:11590 11598, 2001).

Data set [5] concerns MCF-7 human breast cancer cells. In words: Proliferation of MCF-7 breast cancer cells, alone or with 1 nM E2. Type of data set: cell-based. To be noted: for E2-induced MCF-7 cell proliferation: co-treated with 1 nM E2; for Growth of MCF-7 cells, compound alone: up to 10 μM.
The subject of data set [6] is T47D human breast cancer cells. Description: Estrogenic and antiestrogenic activity in T47D cells (proliferation, alone or with 1 nM E2). Type of data set: cell-based. The settings on record: in combination with 1 nM E2. The source says:
In a separate study, it was also shown that the same compounds and other C-substituted DIMs were also antiestrogenic in T47D cells, and these include the C-p-phenol and C-p-anisole compounds in which R1═CH3 (methyl) (i.e., NMe-CPh-OHDIM and NMe-CPh-MeODIM, respectively) (FIG. 3).

Data set [7] relates to DMBA-induced mammary tumor. In words: DMBA-induced rat mammary tumor model. To be noted: 1.0 mg/kg every 2 days; for Mammary tumor growth in DMBA-induced rats: tumor volumes over 21 days. Format: in vivo, female Sprague-Dawley rats.
Data set [8] can be described thus: Body/organ weights, EROD and histopathology in the DMBA-induced rat study. Type of data set: in vivo, female Sprague-Dawley rats. The settings on record: 1.0 mg/kg every 2 days.

“Also recorded” adds a separate entry of the source. Like-named read-outs stand apart in the source and are kept apart here. Marks after values point to notes of the source that are not given here.

The compound `Cn1cc(C(c2ccc(Cl)cc2)c2cn(C)c3ccccc23)c2ccccc21` gave an IC50 at Ah receptor of 0.55 nM.

For the compound `Cc1[nH]c2ccccc2c1Cc1c(C)[nH]c2ccccc12` [2,2′-dimethylDIM, 2,2′-dimethyl-diindolylmethane], in data set [1], the “Proliferation of TCCSUP human bladder cancer cells” value is on record as “significantly inhibited” and the “Lowest concentration at which TCCSUP cells were inhibited” value is 0.1 µM. Further, the “Proliferation of J82 human bladder cancer cells” value in data set [2] is reported as “significantly inhibited”.

With `Clc1cccc2[nH]cc(Cc3c[nH]c4cccc(Cl)c34)c12` [4,4′-dichloroDIM], in data set [3], the “Lowest concentration at which antiproliferative effects could be observed in HT-29 cells” value came out at 10 µM and the “Programmed cell death accompanying growth inhibition in HT-29 cells” value is “programmed cell death, or apoptosis; also recorded: programmed cell death or apoptosis”. In addition, the “Decrease in HT-29 cell proliferation” value in [3] (25 μM, after 72 hr) is listed as 92%.

With `Clc1ccc2[nH]cc(Cc3c[nH]c4ccc(Cl)cc34)c2c1` [5,5′-dichloroDIM, 5,5′-dichloro-diindolylmethane], in data set [1], the “Proliferation of TCCSUP human bladder cancer cells” value is listed as “significantly inhibited” and the “Lowest concentration at which TCCSUP cells were inhibited” value came out at 0.1 µM. Moreover, in data set [2], the “Proliferation of J82 human bladder cancer cells” value is reported as “significantly inhibited”.

Regarding `Cc1ccc2[nH]cc(Cc3c[nH]c4ccc(C)cc34)c2c1` [5,5′-dimethylDIM, 5,5′-dimethyl-diindolylmethane], in [1], the “Proliferation of TCCSUP human bladder cancer cells” value is given as “significantly inhibited” and the “Lowest concentration at which TCCSUP cells were inhibited” value was 0.1 µM. In addition, the “Proliferation of J82 human bladder cancer cells” value in [2] was “significantly inhibited”. In addition, the “MAPKK-induced (pSRE) activity” value in data set [4] is on record as “inhibited MAPKK-induced activity”.

Take `Cc1ccc2c(Cc3c[nH]c4cc(C)ccc34)c[nH]c2c1` [6,6′-dimethlyDIM]: the “MAPKK-induced (pSRE) activity” value in data set [4] is recorded as “inhibited MAPKK-induced activity”.

`c1ccc(C(c2c[nH]c3ccccc23)c2c[nH]c3ccccc23)cc1` [C-PhDIM]: in [5] (listed as C-phenylDIM), the “E2-induced MCF-7 cell proliferation” value is given as “hormone-induced proliferative response was inhibited” and the “Growth of MCF-7 cells, compound alone” value is given as “did not induce breast cancer cell proliferation”. Besides, in [5] (listed as C—C6H5), the “E2-induced MCF-7 cell proliferation” value is on record as “significant inhibition of E2-induced cell proliferation” and the “Growth of MCF-7 cells, compound alone” value is reported as “do not affect growth”. Also, the “Antiestrogenic activity in T47D cells” value in data set [6] is on record as “antiestrogenic”. Further, in [7], the Tumor volume was 1025 +/− 245* mm3, the Tumor weight is reported as 1.40 +/− 0.4* g and the “Mammary tumor growth in DMBA-induced rats” value (“Mammary tumor growth” for short) is reported as “potent inhibition of mammary tumor growth”. Also, the “Mammary tumor growth” value in data set [7] (listed as C-phenylDIM) is “potent inhibition of mammary tumor growth”. Besides, the “Mammary tumor growth” value in data set [7] (listed as C—PhDIM) is recorded as “Illustrates inhibition of DMBA-induced mammary tumor growth in female Sprague-”. In data set [8], the “Changes in body/organ weights or tissue histopathology” value is “not accompanied by changes in body/organ weights or altered tissue histopathology”, the EROD worked out at 309 ± 102 pmol/mg/min, the Heart was 0.38 +/− 0.03 % body weight and the Kidney was 0.33 +/− 0.01 % body weight. Besides, in [8], the Liver is recorded as 3.2 +/− 0.1 % body weight, the Spleen is on record as 0.33 +/− 0.05 % body weight and the Uterus is 0.19 +/− 0.02 % body weight. Besides, the “Changes in body/organ weights or tissue histopathology” value in data set [8] (listed as C-phenylDIM) is on record as “not accompanied by changes in body/organ weights on altered tissue histopathology”. This compound had an IC50 at Ah receptor of 98 nM.

Consider `CC(c1c[nH]c2ccccc12)c1c[nH]c2ccccc12` [C-methylDIM], for which, in [5], the “E2-induced MCF-7 cell proliferation” value was “hormone-induced proliferative response was inhibited” and the “Growth of MCF-7 cells, compound alone” value was “did not induce breast cancer cell proliferation”. Further, in data set [5] (listed as C—CH3), the “E2-induced MCF-7 cell proliferation” value is “significant inhibition of E2-induced cell proliferation” and the “Growth of MCF-7 cells, compound alone” value is reported as “do not affect growth”. The “Antiestrogenic activity in T47D cells” value in [6] is on record as “antiestrogenic”. In addition, the IC50 on Ah receptor is 11 nM.

`FC(F)(F)c1ccc(C(c2c[nH]c3ccccc23)c2c[nH]c3ccccc23)cc1` [C—Ph—CF3DIM]: the “Mammary tumor growth” value in data set [7] is “Illustrates inhibition of DMBA-induced mammary tumor growth in female and C—Ph—CF3DIM”.

`Cn1cc(C(c2ccc(-c3ccccc3)cc2)c2cn(C)c3ccccc23)c2ccccc21` [NMe-C-BiphDIM]: the “Mammary tumor growth” value in [7] is “Illustrates inhibition of DMBA-induced mammary tumor growth in female Sprague-”. Moreover, the IC50 at Ah receptor (read-out: IC50 competitive binding values, Ah receptor) is 1.8 nM.

With `Cn1cc(C(c2ccc(C(F)(F)F)cc2)c2cn(C)c3ccccc23)c2ccccc21` [NMe-C-Ph-CF3DIM], in data set [7], the “Mammary tumor growth” value is listed as “Illustrates inhibition of DMBA-induced mammary tumor growth in female Sprague-”.

As to `COc1ccc(C(c2cn(C)c3ccccc23)c2cn(C)c3ccccc23)cc1` [NMe-C-Ph-MeODIM], in data set [6], the “Antiestrogenic activity in T47D cells” value is “antiestrogenic”. The “Mammary tumor growth” value in data set [7] is recorded as “Illustrates inhibition of DMBA-induced mammary tumor growth in female Sprague-”.

Take `Cn1cc(C(c2ccccc2)c2cn(C)c3ccccc23)c2ccccc21` [NMe-C-PhDIM]: the “Mammary tumor growth” value in data set [7] was “Illustrates inhibition of DMBA-induced mammary tumor growth in female Sprague-”.

As to `Cc1ccc(C(c2cn(C)c3ccccc23)c2cn(C)c3ccccc23)cc1` [NMe-C-PhMeDIM], in [7], the “Mammary tumor growth” value is “Illustrates inhibition of DMBA-induced mammary tumor growth in female Sprague-”.

On to `Cn1cc(C(c2ccc(O)cc2)c2cn(C)c3ccccc23)c2ccccc21` [NMe-C-PhOHDIM], for which, in [6], the “Antiestrogenic activity in T47D cells” value is “antiestrogenic”. In addition, the “Mammary tumor growth” value in data set [7] is on record as “Illustrates inhibition of DMBA-induced mammary tumor growth in female Sprague-”.

A word on the IC50: it is the concentration needed to halve the response being measured.
